Assay results: patent US5637262A, “Photochromic substituted naphthopyran compounds” (Transitions Optical, Inc., priority 1995, dated 1997)

Assays:
Assay type in all cases: physicochemical
[1] = Solar response / loss in response on optical bench with 320 nm and 360 nm filters (Part C); conditions: for Δ OD @ 320 nm / Δ OD @ 360 nm: 15 minute exposure; for Δ OD @ 320 nm: 320 nanometer filter; for Δ OD @ 360 nm: 360 nanometer filter; for % LOSS IN RESPONSE: (OD 320 nm - OD 360 nm)/OD 320 nm x 100; for BLEACH RATE T 1/2: polymeric matrix prepared from a diethylene glycol bis(allyl carbonate) composition
Experimental: (§1) The test samples were evaluated for photochromic response rates on an optical bench. The samples were illuminated by a 150 watt Xenon lamp fitted with a copper sulfate bath, a 320 nanometer filter, and a neutral density filter at an intensity of about one sun. A second beam of light provided by a filtered tungsten lamp arranged to pass through the sample area exposed by the UV source was used to monitor changes in transmission of the sample over different wavelength ranges in the visible region of the spectrum. The intensity of the monitoring beam after passing through the sample was measured by means of an IL-1500 radiometer equipped with a silicon detector head and matching filters.
(§2) The Δ OD/Min, which represents the sensitivity of the photochromic compound's response to UV light, was measured using photopic filters on the silicon detector. The response of the filtered detector approximated the luminosity curve. The Δ OD was measured over the first five (5) seconds of UV exposure, then expressed on a per minute basis. The saturation optical density (OD) was taken under identical conditions as the Δ OD/Min, except UV exposure was continued for 20 minutes for the examples in Table 2. The Bleach Rate T 1/2 is the time interval in seconds for the absorbance of the activated form of the naphthopyran in the test polymers to reach one half the highest absorbance at room temperature (72° F., 22.2° C.) after removal of the source of activating light.
The solar response for naphthopyrans of Example 7 and Comparative Examples 3 and 4 was measured using the optical bench described in Part B. The naphthopyrans were imbibed by thermal transfer into test squares of a polymeric matrix prepared from a diethylene glycol bis(allyl carbonate) composition and two optical density measurements were made after 15 minute exposures to a UV source first fitted with a 320 nanometer filter and then fitted with a 360 nanometer filter. The loss in response was calculated by subtracting the optical density obtained with the 360 nanometer filter from the optical density obtained with the 320 nanometer filter and then dividing this figure by the optical density obtained with the 320 nanometer filter and multiplying by 100.
The loss in response measurement, expressed as a percent, simulates the difference between the photochromic response of the compounds exposed to full mid-day sun and to low light conditions, such as early day and late in the day when the lower wavelength components of the UV spectrum are attenuated.

[2] = Activating wavelength by UV spectrophotometer (diethylene glycol dimethyl ether); conditions: for ACTIVATING WAVELENGTH: Table 3; for Activating Wavelength in Diethylene Glycol Dimethyl Ether: Table 1, approximately 0.5 milligram per milliliter in diethylene glycol dimethyl ether
Experimental: The products of Examples 1, 5, 8, 9, and Comparative Examples 1 and 2 were dissolved in diethylene glycol dimethyl ether. The concentrations of the resulting solutions were approximately 0.5 milligram per milliliter. Each solution was tested in a UV spectrophotometer to determine its activating wavelength. The activating wavelength reported in Table 1 is the wavelength at which activation of the photochromic compound occurs in diethylene glycol dimethyl ether. That value corresponds to the absorption peak in the ultraviolet region that is closest to the visible region or the threshold range, i.e., 390 to 410 nanometers, if there is only one absorption peak in this region. If there is more than one absorption peak, the activating wavelength corresponds most closely to the absorption peak that immediately proceeds the peak of longer wavelength in the ultraviolet region or the threshold range.

[3] = Photochromic response on optical bench in homopolymer of diethylene glycol bis(allyl carbonate) test squares (Part B); conditions: for BLEACH RATE T 1/2: Table 2, room temperature (72° F., 22.2° C.), homopolymer of diethylene glycol bis(allyl carbonate); for Δ OD @ SATURATION: UV exposure 20 minutes; for Δ OD @ SATURATION / Δ OD/Min SENSITIVITY: 320 nanometer filter, homopolymer test squares; for Δ OD/Min SENSITIVITY: first five (5) seconds of UV exposure, per minute basis
Experimental: Each naphthopyran was dissolved into toluene solvent to form a 4 weight percent solution of the compound. A piece of No. 4 Whatman filter paper was saturated with the naphthopyran solution and allowed to air dry. The dried filter paper was placed on one side of the polymer test square, which measured 1/8 inch (0.3 centimeter)×2 inch (5.1 centimeters)×2 inch (5.1 centimeters). A piece of untreated filter paper was placed on the other side of the polymer test square and the resulting sandwich placed between two plates of flat aluminum metal plates. […] The imbibed test squares were washed with acetone after removal from the oven.
as §1
as §2, with “2.” for “2. The Bleach Rate T 1/2 is the time interval in seconds for the absorbance of the activated form of the naphthopyran in the test polymers to reach one half the highest absorbance at room temperature (72° F., 22.2° C.) after removal of the source of activating light.”

Structure (SMILES) | Δ OD @ 320 nm [1] | Δ OD @ 360 nm [1] | % LOSS IN RESPONSE [1] [%] | BLEACH RATE T 1/2 ([1]; Table 3) [min] | ACTIVATING WAVELENGTH [2] [nm] | Activating Wavelength in Diethylene Glycol Dimethyl Ether [2] [nm] | BLEACH RATE T 1/2 [3] [min] | Δ OD @ SATURATION [3] | Δ OD/Min SENSITIVITY [3] | also measured
COC(=O)c1cc2c3c(ccc2cc1OC)OC(c1ccc(OC)cc1)(c1ccccc1F)C=C3 (stereo not drawn) [Example 7, 3-(2-fluorophenyl)-3-(4-methoxyphenyl)-8-methoxy-9-carbomethoxy-3H-naphtho[2,1-b]pyran] | 0.187 | 0.184 | 2 | 3.27 | 384 |  |  |  |  | Bleach Rate T 1/2, i.e., rate of fade (in words) ([1]; Table 3): more acceptable Bleach Rate T 1/2; Reduction in optical density, 360 nm vs 320 nm cutoff filter (in words) ([1]; compared to comparative examples 3 and 4): less reduction in optical density
CCCOC(=O)c1cc2c3c(ccc2cc1O)OC(c1ccccc1)(c1ccccc1)C=C3 [Example 1, 3,3-diphenyl-8-hydroxy-9-carbopropoxy-3H-naphtho[2,1-b]pyran] |  |  |  |  |  | 408 |  |  |  | 
CCCOC(=O)c1cc2c3c(ccc2cc1OC)OC(c1ccccc1)(c1ccccc1)C=C3 [Example 5, 3,3-diphenyl-8-methoxy-9-carbopropoxy-3H-naphtho[2,1-b]pyran] |  |  |  |  |  | 382 | 1.33 | 0.55 | 1.4 Δ OD/Min | Sensitivity (in words) ([3]; compared to comparative examples 1 and 2): increased sensitivity as compared to the compounds of comparative examples 1 and 2
COc1ccc2c3c(ccc2c1C)OC(c1ccccc1)(c1ccccc1)C=C3 [Example 9, 3,3-diphenyl-7-methyl-8-methoxy-3H-naphtho[2,1-b]pyran] |  |  |  |  |  | 369 |  |  |  | 
COc1ccc(C2(c3ccccc3F)C=Cc3c(ccc4cc(OC)ccc34)O2)cc1 (stereo not drawn) [Comparative Example 3, 3-(2-fluorophenyl)-3-(4-methoxyphenyl)-8-methoxy-3H-naphtho[2,1-b]pyran] | 0.266 | 0.249 | 6 | 5.93 | 359 |  |  |  |  | 
COc1ccc(C2(c3ccc(OC)cc3OC)C=Cc3c(ccc4ccccc34)O2)cc1 (stereo not drawn) [compound 4, 3-(2,4-dimethoxyphenyl)-3-(4-methoxyphenyl)-3H-naphtho[2,1-b]pyran] | 0.260 | 0.196 | 25 | 5.63 | 348 |  |  |  |  | 
COC(=O)c1cc2c3c(ccc2cc1OC(C)=O)OC(c1ccc(OC)cc1)(c1ccc(OC)cc1OC)C=C3 (stereo not drawn) [Example 8, 3-(2,4-dimethoxy-phenyl)-3-(4-methoxyphenyl)-8-acetoxy-9-carbomethoxy-3H-naphtho-[2,1-b]pyran] |  |  |  |  |  | 376 |  |  |  | 
C1=CC(c2ccccc2)(c2ccccc2)Oc2ccc3ccccc3c21 [compound 2, 3,3-diphenyl-3H-naphtho[2,1-b]pyran] |  |  |  |  |  | 348 | 0.75 | 0.36 | 0.87 Δ OD/Min | 
COc1ccc2c3c(ccc2c1)OC(c1ccccc1)(c1ccccc1)C=C3 [compound 1, 3,3-diphenyl-8-methoxy-3H-naphtho [2,1-b]pyran] |  |  |  |  |  | 359 | 1.45 | 0.73 | 1.25 Δ OD/Min | 
